Holding throughout (test): Proliferation Assay (Cell Viability Assay)
Common to all, as to format: cell-based

The subject of assay [1] is GP2d (expressing KRas G12D mutant). The note with it: Homo sapiens, Proliferation assay, read-out: GP2d IC50 (nM) Colorectal. As to the method: (§1) Cell lines: these Human tumor-derived cell lines were purchased from American Type Culture Collection. Human tumor-derived pancreatic cancer cell line MiaPaca-2 (expressing KRAS G12C mutant) and Panc-1 (expressing KRas G12D mutant), and Human non-small cell lung cancer (NSCLC) cell line A549 (expressing KRas G12S mutant), and Human melanoma cell line A375 (wild type Kras) were grown in complete DMEM-High Glucose medium. Human tumor-derived pancreatic cancer cell lines SU86.86 (expressing KRas G12D mutant), BxPC3 (expressing wild type K-Ras), and Human non-small cell lung cancer (NSCLC) cell lines NCI-H441 (expressing KRas G12S mutant), NCI-H1975 (expressing wild type KRas), NCI-H358 (expressing KRas G12C mutant), NCI-H1299 (expressing NRas Q61H mutant), and Human colon cancer cell line SW-620 (expressing KRas G12V mutant), Human triple negative breast cancer cell line HCC-1806 (expressing wild type KRas), and Human tumor-derived multiple myeloma cell line MM.1R (expressing wild type KRAS), were grown in RPMI 1640 medium. Human tumor-derived breast cancer cell line BT-549 (expressing wild type KRAS) was grown in RPMI 1640 medium in the presence of 11.8U insulin. Human tumor-derived pancreatic cancer cell line HPAF-II (expressing KRas G12D mutant), Human triple negative breast cancer cell line BT-20 (expressing wild type KRas), and Human colon cancer cell line LS123 (expressing KRas G12S mutant), were grown in EMEM medium. Human tumor-derived pancreatic cancer cell line CF-PAC1 (expressing KRas G12V mutant) was frown in IMDM medium, and Human colon cancer cell line HT29 (expressing wild type KRas) was grown in McCoy's 5A medium. The colon cancer cell line GP2d (expressing KRas G12D mutant) was purchased from MilliporeSigma and grown in DMEM-High Glucose medium. All cell lines were supplemented with penicillin (100 U/mL), streptomycin (100 μg/mL), and 10% heat-inactivated FBS at 37° C. in a humidified incubator with 5% CO2.
(§2) Method: Cells were plated at 2000 to 5000 cells/well density in 96-wells plate and cultured overnight. Small molecules that were tested were added to the cells in the final concentration of 10 μM in the presence of 0.3% DMSO and 10% FBS, and incubated for 2-4 days at 37° C. in a humidified incubator with 5% CO2. For IC50 value determination, serial dilutions of compounds were added to cells under the same conditions.
(§3) Assay: At the end of the incubation period, cell viability was determined using the CellTiter 96® Aqueous One Solution Cell Proliferation Assay according to manufacturer specifications (Promega, Madison, WI). The percentage of small molecules inhibition of cellular proliferation was calculated from raw data.

The subject of the next assay is A375 (wild type Kras). As to conditions: Homo sapiens, A-375; Proliferation assay, A375; read-out: A375 IC50 (nM) Melanoma. As for the experimental part: as §1, §2, §3
Assay [2] has as its system NCI-H358 (expressing KRas G12C mutant). The note with it: Homo sapiens; Proliferation assay, NCI-H358; read-out: NCI-H358 IC50 (nM) NSCLC. As for the experimental part:
as §1, §2, §3

For assay [3], the system named is MM.1R (expressing wild type KRAS). The note with it: Homo sapiens, read-out: MM.1R IC50 (nM) Multiple Myloma. As to the method:
as §1, §2, §3

Assay [4] deals with BT-549 (expressing wild type KRAS). The note with it: Homo sapiens, BT-549; Proliferation assay, BT549; read-out: BT549 IC50 (nM) TNBC. As for the experimental part:
as §1, §2, §3

IC50 data for four compounds are collected here from patent US12459951B2, “Compounds that interact with RAS superfamily proteins for treatment of cancers, inflammatory diseases, rasopathies, and fibrotic disease” (SHY Therapeutics, LLC, priority 2022, dated 2025).

As to `Cc1c(-c2ccn(C)n2)cn2nc(-c3nccn3C)nc(Nc3cc4c(cn3)CCO4)c12` [Compound 221, N-(5-Methyl-2-(1-methyl-1H-imidazol-2-yl)-6-(1-methyl-1H-pyrazol-3-yl)pyrrolo[2,1-f][1,2,4]triazin-4-yl)-2,3-dihydrofuro[3,2-c]pyridin-6-amine], the IC50 in assay [1] was over 50 nM; with A375 (wild type Kras), over 50 nM; in assay [2] it was 10 to 50 nM; in assay [3], under 1 nM; in assay [4], over 50 nM.

Take `COc1cc(Nc2nc(-c3nccn3C)nn3cc(-c4ccn(C)n4)c(C)c23)ncc1C1CC1` [Compound 238, N-(5-Cyclopropyl-4-methoxypyridin-2-yl)-5-methyl-2-(1-methyl-1H-imidazol-2-yl)-6-(1-methyl-1H-pyrazol-3-yl)pyrrolo[2,1-f][1,2,4]triazin-4-amine]: the IC50 in assay [1] was over 50 nM; in the assay on A375 (wild type Kras), over 50 nM; in assay [2], over 50 nM; in assay [3], under 1 nM; in assay [4] it was 10 to 50 nM.

Regarding `Cc1c(-c2ccn(C)n2)cn2nc(-c3nccn3C)nc(Nc3cc(N4CCOCC4)ccn3)c12` [Compound 222, 5-Methyl-2-(1-methyl-1H-imidazol-2-yl)-6-(1-methyl-1H-pyrazol-3-yl)-N-(4-morpholinopyridin-2-yl)pyrrolo[2,1-f][1,2,4]triazin-4-amine], the 50% inhibitory concentration (IC50) was over 50 nM in assay [1]; over 50 nM in the assay on A375 (wild type Kras); 10 to 50 nM in assay [2]; under 1 nM in assay [3]; 10 to 50 nM in assay [4].

Consider `COc1cc(Nc2nc(-c3nccn3C)nn3cc(-c4ccn(C)n4)c(C)c23)ncc1C` [Compound 235, N-(4-Methoxy-5-methylpyridin-2-yl)-5-methyl-2-(1-methyl-1H-imidazol-2-yl)-6-(1-methyl-1H-pyrazol-3-yl)pyrrolo[2,1-f][1,2,4]triazin-4-amine], for which the IC50 in assay [1] was over 50 nM; with A375 (wild type Kras), over 50 nM; in assay [2] it was over 50 nM; in assay [3], under 1 nM; in assay [4] it was 10 to 50 nM.

The term IC50 denotes the concentration at which inhibition is half-maximal.
